Test results: US20220026414A1, “CELL-BASED BIOIDENTITY TEST FOR INSULIN” (Merck Sharp & Dohme Corp., priority 2018, published 2022)

System: human G6PC promoter luciferase reporter in H4IIE rat hepatoma cells
Experiment: H4IIE G6P-Luc reporter assay (luciferase under control of the G6PC promoter, clone C17-2)
Assay type: cell-based
Conditions: for Geometric mean of measured relative potency: pre-qualification study
Source text: The H4IIE G6P-Luc C17-2 stable cell line was generated by stably expressing Luciferase reporter gene under the control of G6PC promoter via lentivirus technology. Briefly, the human G6PC promoter −1227/+57 sequence (SEQ ID NO: 1) was synthesized and subcloned into pLenti-NFAT-Luc vector to replace NFAT promoter. Lentivirus was generated comprising the construct and H4IIE parental cells were transduced with the lentivirus and screened with the selection antibiotic Hygromycin B. The resulting stable pool cells were validated by quantitative polymerase chain reaction (qPCR) and luciferase assay. The initial work of generating a H4IIE G6P-Luc stable cell line was outsourced to GenScript, Piscataway, N.J. USA. The stable cell pool was re-cloned in-house with limiting dilutions to identify additional clones. H4IIE_G6P-Luc C17-2 is a single clone stable cell line selected for its high assay window (difference in fluorescence detected in a sample containing 1 nM insulin versus fluorescence detected in a sample containing no insulin) and fast growth rate.
The H4IIE_G6P-Luc_C17-2 cells were cultured in Dulbecco's Modified Eagle's medium (DMEM), supplemented with 10% fetal bovine serum (FBS), 1× penicillin-streptomycin, and 0.3 mg/mL Hygromycin B. […] 25 μL insulin titration was aliquoted into the wells of a solid white 96-well tissue-culture treated assay plate. […] Afterwards, […] of ONE-GLO luciferase regent was added to the assay plate. After 10 minutes incubation at room temperature, luminescence signal was read on the EnVision plate reader (Perkin Elmer, Waltham, Mass. USA).

Row | Substance | inhibition of luciferase reporter expression (clone C17-2, 7-hour treatment (FIG. 2A)) | inhibition of luciferase expression (clone C17-2, lower amounts of FBS in assay medium (FIG. 2C)) | inhibition of luciferase reporter expression (clone C17-2, overnight treatment (17-hours) (FIG. 2A)) | dose response curve (clone C17-2 after 29 cell passages (P29) (FIG. 2D)) | Geometric mean of measured relative potency (target relative potency 50% of reference material, N=12) | Geometric mean of measured relative potency (target relative potency 71% of reference material, N=12) | Geometric mean of measured relative potency (target relative potency 100% of reference material, N=24) | Geometric mean of measured relative potency (target relative potency 141% of reference material, N=12) | Geometric mean of measured relative potency (target relative potency 200% of reference material, N=12) | inhibition of luciferase reporter expression (top two clones (C17, C58), overnight treatment compared with seven-hour treatment (FIG. 1C))
1 | Insulin glargine | mild inhibition | Less inhibition of luciferase expression | robust inhibition | well-formed dose response curve | 51 | 68 | 103 | 132 | 196 | 
2 | recombinant human insulin: NOVOLIN (recombinant human insulin) purchased from Novo Nordisk |  |  |  |  |  |  |  |  |  | significantly better inhibition
